Experimental data taken from patent publication US20220000805A1, “COMBINATION OF M-OPIOID RECEPTOR (MOR) MODULATORS FOR PREVENTING AND TREATING PAIN, S[…] MENTAL DISORDERS” (HADAS IT MEDICAL RESEARCH SERVICES & DEVELOPMENT LIMITED, priority 2018, published 2022).
Where “and” joins values, the source holds several entries; their conditions need not be identical. Equal entries are not always repeated. Where two headings read alike, the source gives them in different places.

Legend:
[1] = single iv bolus dose of 0.5 mg/kg racemic ketamine; for at least 24 hrs; cited from earlier work
[2] = target: T1, h-OPRM1 (human MOR) (Homo sapiens, UniProt P35372); format: cell-based
T1 construct: host or cells: Chinese hamster ovary (CHO) cells, cAMP Hunter cell line
Experimental: Tracking cAMP Secondary Messenger Pathway in MOR Expressing Cells (DiscoverX)
A Chinese hamster ovary cell line stably expressing non-tagged h-OPRM1 (human MOR) that signal through cAMP was used.
1. cAMP Hunter cell line expressing h-OPRM1 was expanded from freezer stocks according to standard procedures. 2. Cells were seeded in a total volume of 20 μL into white walled, 384-well microplates and incubated at 37° C. for the appropriate time prior to testing. 3. cAMP modulation was determined using the DiscoverX HitHunter cAMP XS+ assay (for further details, see below).
1. For agonist determination, cells were incubated with sample in the presence of EC80 forskolin to induce cAMP-generation and Gi agonist activity, inhibiting cAMP formation, by the test compound was assayed, as follows: 2. Media was aspirated from cells and replaced with 15 μL 2:1 HBSS/10 mM Hepes: cAMP XS+Ab reagent. 3. Intermediate dilution of sample stocks was performed to generate 4× sample in assay buffer containing 4× EC80 forskolin. An amount of 4.5 μL of 4× sample was added to cells and incubated at 37° C. or room temperature for 30 or 60 minutes. The vehicle used for all stock solutions is DMSO and its final concentration in the assay system was 1%.
1. After appropriate compound incubation, assay signal was generated through incubation with 20 μL cAMP XS+ED/CL lysis cocktail for one hour followed by incubation with 20 μL cAMP XS+EA reagent for three hours at room temperature. 2. Microplates were read following signal generation with a PerkinElmer Envision™ instrument for chemiluminescent signal detection.
1. Compound activity was analyzed using CBIS data analysis suite (ChemInnovation, CA). 2. For Gi agonist mode assays, percentage activity is calculated using the following formula: % Activity=100%×(1−(mean RLU of test sample−mean RLU of MAX control)/(mean RLU of vehicle control−mean RLU of MAX control)).
OPRM1, the μ-opioid receptor (MOR), is a GPCR with high affinity for enkephalins and beta-endorphin, but a low affinity for dynorphins. The prototypical OPRM1 agonist is morphine, the primary psychoactive alkaloid in opium. It is an inhibitory G-protein coupled receptor that activates the Gi alpha subunit, inhibiting adenylate cyclase activity, thereby lowering cAMP levels. In order to test synergy of various drug combinations, towards the human receptor (h-OPRM1), a high sensitivity and absolute selectivity assay system, developed by DiscoverX (Fremont, Calif., USA) was employed. The analytical power of this assay, described in detail below, enables unequivocal identification of agonistic or antagonistic activity of drugs towards h-OPRM1, at the biologically relevant cellular context. […] A positive control dose-response was also examined in parallel (see FIG. 6).

[3] = system: opioid-receptor; conditions: opioid agonist; relative to 7-hydroxymitragynine; cited from earlier work

T1 sequence (P35372 whole entry): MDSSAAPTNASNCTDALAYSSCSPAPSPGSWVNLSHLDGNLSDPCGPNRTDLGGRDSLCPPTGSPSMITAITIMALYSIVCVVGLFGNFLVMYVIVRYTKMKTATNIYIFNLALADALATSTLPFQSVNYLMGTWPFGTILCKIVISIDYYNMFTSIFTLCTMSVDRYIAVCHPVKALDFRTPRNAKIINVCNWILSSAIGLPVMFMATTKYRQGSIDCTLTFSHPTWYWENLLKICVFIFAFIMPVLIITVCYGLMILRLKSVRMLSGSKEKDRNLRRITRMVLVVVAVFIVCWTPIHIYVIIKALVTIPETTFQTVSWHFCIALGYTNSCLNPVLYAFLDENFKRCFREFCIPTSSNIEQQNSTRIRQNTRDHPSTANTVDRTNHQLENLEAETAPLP

CNC1(c2ccccc2Cl)CCCCC1=O (racemic) [Ketamine, (RS)-2-(2-Chlorophenyl)-2-(methylamino)cyclohexanone]
HNK serum concentrations [1]: about 30 nM

CN1c2ccccc2C(NCCCCCCC(=O)O)c2ccc(Cl)cc2S1(=O)=O (stereo not shown) [Tia, 7-[(3-Chloro-6-methyl-5,5-dioxo-11H-benzo[c][2,1]benzothiazepin-11-yl)amino]heptanoic acid]
amount of the single agent that obtains the level of activity of the combination [2]: > 5 ×

N[C@@]1(c2ccccc2Cl)CCC[C@@H](O)C1=O.O=C(O)C(F)(F)F (racemic) [HNK, rac-(2r,6r)-2 amino-2-(2-chlorophenyl)-6-hydroxycyclohexan-1-one; trifluoroacetic acid, trans]
agonistic activity of the ketamine active metabolite by itself [2]: no agonistic activity | Agonistic activity (% of maximal c-AMP inhibition) ([2]; HNK 0.08 nM by itself, Table 2/5 series): 0% and 3.1% | Agonistic activity (% of maximal c-AMP inhibition) ([2]; HNK 0.4 nM by itself, Table 2/5 series): 0% and 7.6% | Agonistic activity (% of maximal c-AMP inhibition) ([2]; HNK 2 nM by itself, Table 2/5 series): 0% | Agonistic activity (% of maximal c-AMP inhibition) ([2]; HNK 10 nM by itself, Table 2/5 series): 0% | Agonistic activity (% of maximal c-AMP inhibition) ([2]; HNK 50 nM by itself, Table 1 series): 1.3% | Agonistic activity (% of maximal c-AMP inhibition) ([2]; HNK 50 nM by itself, Table 2/5 series): 0% and 6.7% | Agonistic activity (% of maximal c-AMP inhibition) ([2]; HNK 300 nM by itself, Table 1 series): 10.3% | Agonistic activity (% of maximal c-AMP inhibition) ([2]; HNK 1,800 nM by itself, Table 1 series): −3.4% | Agonistic activity (% of maximal c-AMP inhibition) ([2]; HNK 11,000 nM by itself, Table 1 series): −8.6%

10-fluoro ethylene glycol adduct of 7-hydroxymitragynine
potency higher than 7-hydroxymitragynine [3]: 4 fold
